In brackets after ≈: the same amount, converted by molar mass.
Details: buffer; pH 7.4; 200.0 µM
With CCOC(=O)/C(C#N)=C/c1cccn1-c1ccc(Cl)cc1 the solubility kinetic was < 0.3 µg/mL.
In the case of Cc1ccc(-c2csc(NC(=O)CN3CCOCC3)n2)cc1, the solubility kinetic was > 47.6 µg/mL.
CCC(NC(=S)NC1CCCCC1)c1ccc(C(C)C)cc1 (centres undefined) showed a solubility kinetic of 1.6 µg/mL (≈ 5.02 µM).
In the case of COc1ccc(N2C(=O)c3ccccc3NC2(C)C)cc1, the solubility kinetic was 8.3 µg/mL (≈ 29.4 µM).
In the case of COc1cccc(NC(=O)Nc2cccnc2)c1, the solubility kinetic was > 36.5 µg/mL.
In the case of S=c1[nH]nc(Nc2ccccc2Cl)s1, the solubility kinetic was > 36.6 µg/mL.
Clc1ccc(-c2cc(CN3CCCCC3)no2)cc1Cl showed a solubility kinetic of 0.4 µg/mL (≈ 1.29 µM).
In the case of COCCNC(=S)N1CCN(C)CC1.O=C(O)C(=O)O, the solubility kinetic was > 46.1 µg/mL.
With CCOc1ccc2oc(-c3ccccc3)c(C(N)=O)c2c1 the solubility kinetic was < 0.6 µg/mL.
For Cc1cc2oc(=O)cc(CN3CCOCC3)c2cc1C(C)C, the solubility kinetic was 3.4 µg/mL (≈ 11.3 µM).
Compound CC(=O)Nc1ccc(NC(=O)COC(=O)C2CCC(C(C)(C)C)CC2)cc1 (centres undefined) has a solubility kinetic of 3.7 µg/mL (≈ 9.88 µM).
In the case of Cc1cc(C)cc(NC(=O)C2CCCN2C(=O)NC2CCCCC2)c1 (centres undefined), the solubility kinetic was 0.7 µg/mL (≈ 2.04 µM).
In the case of COc1ccc(NC(=O)c2cccc(-c3ccc(O)cc3)c2)cn1, the solubility kinetic was 9.7 µg/mL (≈ 30.3 µM).
Compound CCCCC(=O)Nc1cc([N+](=O)[O-])ccc1F has a solubility kinetic of 31.8 µg/mL (≈ 132 µM).
For COC(=O)c1ccccc1NC(=O)CSc1nncn1C, the solubility kinetic was > 46 µg/mL.
With Cc1ccc(C)c(N2CCN(C3CCCC(C)C3)CC2)c1 (centres undefined) the solubility kinetic was 23.3 µg/mL (≈ 81.3 µM).
Work on O=C(Cc1cccs1)Nc1ccc([N+](=O)[O-])cc1 yielded a solubility kinetic of 39 µg/mL (≈ 149 µM).
In the case of COc1cc(Cl)c(C)cc1NC(=O)CCN1C(=O)NC(C)(C)C1=O, the solubility kinetic was > 53.1 µg/mL.
In the case of CCOc1ccc(CN(C)C(=O)c2cc3ccccc3o2)cc1OC, the solubility kinetic was > 50.9 µg/mL.
With CCc1c(-c2ccccc2)[n+](=O)c2c(n1[O-])CCC2 the solubility kinetic was > 38.4 µg/mL.
For CCN(CC)Cc1c(O)ccc2c(=O)c(Oc3ccccc3OC)c(C)oc12, the solubility kinetic was > 57.5 µg/mL.
With COc1ccc(CNC(=O)c2cc(=O)c3cc(C)cc(C)c3o2)cc1 the solubility kinetic was < 0.7 µg/mL.
With COc1cc(C(=O)NCCC(=O)NC(C)C)cc(OC)c1OC the solubility kinetic was > 48.7 µg/mL.
With Cc1cccc(-n2c(SCC(N)=O)nnc2-c2ccco2)c1 the solubility kinetic was > 47.2 µg/mL.
Work on Cc1ccc(C(=O)NCCCNC(=O)c2ccco2)cn1 yielded a solubility kinetic of 34.3 µg/mL (≈ 119 µM).
With CC(C)C(=O)Nc1ccccc1-c1nc2ccccc2[nH]c1=O the solubility kinetic was > 46.1 µg/mL.
With CC(=O)c1cn(CC(=O)NCCc2c[nH]c3ccccc23)c2ccccc12 the solubility kinetic was 2.6 µg/mL (≈ 7.23 µM).
For COc1ccc(C(CNC(=O)Cc2c(F)cccc2Cl)N2CCCCC2)cc1 (centres undefined), the solubility kinetic was 59.1 µg/mL (≈ 146 µM).
O=c1nc(-c2ccccc2)c2cc(SC(F)F)ccc2[nH]1 gave a solubility kinetic of 1.4 µg/mL (≈ 4.6 µM).
Work on Clc1cccc(CNCC2CCCO2)c1Cl (centres undefined) yielded a solubility kinetic of 33.3 µg/mL (≈ 128 µM).
COc1cc(Br)ccc1NC(=O)c1ccccc1-c1ccccc1C(=O)O gave a solubility kinetic of 53.3 µg/mL (≈ 125 µM).
For Cc1nc(Nc2ccc(O)cc2)c2c3c(sc2n1)CCCC3, the solubility kinetic was 12.9 µg/mL (≈ 41.4 µM).
CC(C)[C@H](NC(=O)c1ccccc1)C(=O)OCC(=O)Nc1sccc1C(N)=O gave a solubility kinetic of 19 µg/mL (≈ 47.1 µM).
In the case of N#C/C(=C\c1cccnc1)c1ccccc1[N+](=O)[O-], the solubility kinetic was 8 µg/mL (≈ 31.8 µM).
With O=C(Nc1ccccc1[N+](=O)[O-])C1COc2ccccc2O1 (centres undefined) the solubility kinetic was 1 µg/mL (≈ 3.33 µM).
Work on CC12CN3CC(C)(CN(C1)C3c1ccc(Cl)cc1)C2 (centres undefined) yielded a solubility kinetic of 30.9 µg/mL (≈ 112 µM).
In the case of COc1ccc(C(=O)NCCCOc2cccc(NC(C)=O)c2)cc1, the solubility kinetic was > 51.4 µg/mL.
In the case of CCOC(=O)N1CCN(C(=O)/C=C/c2ccc(OC)cc2)CC1, the solubility kinetic was 36.1 µg/mL (≈ 113 µM).
In the case of COc1ccc(CC(CC(=O)O)C(=O)NCc2ccccc2)cc1 (centres undefined), the solubility kinetic was 48.6 µg/mL (≈ 148 µM).
O=C(Nc1ccc(Nc2ccccc2)cc1)c1c(Cl)cccc1Cl showed a solubility kinetic of 1.2 µg/mL (≈ 3.36 µM).
In the case of O=C(CN1C(=O)c2ccccc2C1=O)Nc1cc([N+](=O)[O-])ccc1O, the solubility kinetic was > 51.2 µg/mL.
Clc1ccc2nc(-c3ccc(Cl)nc3)[nH]c2c1 gave a solubility kinetic of 13.5 µg/mL (≈ 51.1 µM).
In the case of O=C1CCC(=O)N1CCSC(=S)N1CCSCC1, the solubility kinetic was > 45.7 µg/mL.
COC(=O)c1[nH]c2c(c1C)C(=O)CC(c1ccc(OC)cc1)C2 (centres undefined) showed a solubility kinetic of 2.7 µg/mL (≈ 8.62 µM).
For Cc1ccccc1NC(=O)c1cc[n+]([O-])cc1, the solubility kinetic was > 34.2 µg/mL.
For CO/N=C(\C)C(Cc1ccc(Cl)nc1)Cc1ccc(Cl)nc1, the solubility kinetic was > 50.7 µg/mL.
In the case of Cc1[nH]c(SCC(=O)Nc2cc(C(N)=O)cc(C(N)=O)c2)nc1Cc1ccccc1, the solubility kinetic was > 63.5 µg/mL.
CCOC(=O)c1sc(NC(=O)c2ccc3nc[nH]c3c2)nc1C gave a solubility kinetic of 3.7 µg/mL (≈ 11.2 µM).
Work on CC(=O)Nc1ccc(C23CC4CC(CC(C4)C2)C3)cc1 yielded a solubility kinetic of 0.8 µg/mL (≈ 2.97 µM).
Work on Cc1cc(C)nc(NC=C2C(=O)OC(C)(C)OC2=O)n1 yielded a solubility kinetic of 41 µg/mL (≈ 148 µM).
For CC(C)Cc1nc2oc3c(Cl)ncnc3c2c2c1CCCC2, the solubility kinetic was < 0.2 µg/mL.
Compound Cc1ccc(NC(=O)CCN2CCN(C)CC2)cc1.Cl has a solubility kinetic of 36.9 µg/mL.
Work on O=C(Nc1ccc2ccccc2n1)c1ccccc1Br yielded a solubility kinetic of 4.6 µg/mL (≈ 14.1 µM).
Cc1ccc(/C=C/C(=O)O)cc1S(=O)(=O)NCc1cccnc1 showed a solubility kinetic of 46.9 µg/mL (≈ 141 µM).
With COCc1cc(Sc2ccc(Cl)cc2)nc(C)n1 the solubility kinetic was 40.1 µg/mL (≈ 143 µM).
With CS(=O)(=O)N1CCCC(C(=O)Nc2cccc(F)c2)C1 (centres undefined) the solubility kinetic was > 45.1 µg/mL.
In the case of CC1(C)CC(=O)C(C=NCCN2CCN(C(=O)CCl)CC2)=C(O)C1, the solubility kinetic was > 53.4 µg/mL.
For CC1NC(=O)NC1CCCCCC(=O)Nc1ccc(F)cc1 (centres undefined), the solubility kinetic was > 46.1 µg/mL.
For NS(=O)(=O)c1ccc(NC(=O)CN2C(=O)CCC2=O)cc1, the solubility kinetic was > 46.7 µg/mL.
